In PubChem BioAssay (NCI) one finds TGI data, which are given here for eight compounds.

Test systems include CAKI-1 renal; XF 498 CNS; KM20L2 colon; LXFL 529 NSCLC; ACHN renal; SR leukemia; EKVX NSCLC; DLD-1 colon; RXF-631 renal; DU-145 prostate; BT-549 breast.
Assay in all cases: NCI-60 cell line screen, 48 h

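All cell lines were grown in 96-well plates and treated with compound for 48 hours. TGI marks complete inhibition of growth.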

On to `CC(=O)Nc1ccc(C2=N/C(=C\c3ccc(Cl)c(Cl)c3)C(=O)O2)cc1`, for which the TGI in the assay with CAKI-1 renal, with XF 498 CNS, with KM20L2 colon, with LXFL 529 NSCLC, in the assay with ACHN renal and with SR leukemia was over 100 µM each time. In addition, the TGI in the assay with EKVX NSCLC, in the assay on DLD-1 colon and in the assay on RXF-631 renal was over 100 µM throughout.

Turning to `CC1C(=O)C(C)C(c2cccs2)N(N=O)C1c1cccs1` (stereo not drawn), the TGI in the assay with CAKI-1 renal, in the assay on XF 498 CNS, in the assay with KM20L2 colon, with EKVX NSCLC and in the assay on DLD-1 colon was over 100 µM in each case.

As for `Nc1ccc2cc(S(=O)(=O)O)cc(O)c2c1N=Nc1ccc(NC(=O)Nc2ccc(N=Nc3c(N)ccc4cc(S(=O)(=O)O)cc(O)c34)c(S(=O)(=O)O)c2)cc1S(=O)(=O)O`, the TGI in the assay with XF 498 CNS, in the assay with EKVX NSCLC and in the assay on DLD-1 colon was over 100 µM throughout.

Turning to `COc1cc(C2C(Cl)C(=O)N2NC(=O)c2ccc(NC(C)=O)cc2)cc(Br)c1O` (stereo not drawn), the TGI with LXFL 529 NSCLC, with ACHN renal, in the assay on SR leukemia and in the assay on DLD-1 colon was over 100 µM throughout.

Regarding `COc1ccc(N2C(=O)C3c4[nH]c5ccccc5c4C4CCCCCCCC4C3C2=O)cc1` (stereo not drawn), the TGI in the assay on CAKI-1 renal, in the assay with DU-145 prostate, in the assay on ACHN renal, with SR leukemia and in the assay with EKVX NSCLC was over 10 µM each time.

With `CN1C[C@H]2[C@@H](C1=O)[C@H](c1ccc([N+](=O)[O-])cc1)ON2C`, the TGI in the assay with CAKI-1 renal, with DU-145 prostate, with ACHN renal and in the assay on SR leukemia was over 100 µM throughout.

For the compound `O=C1ON(Cc2ccccc2)C(c2ccccc2)N1c1ccccc1` (stereo not drawn), the TGI in the assay on XF 498 CNS, with KM20L2 colon, with EKVX NSCLC and with DLD-1 colon was over 100 µM in each case.

For `COc1ccc2c(C)cc(N/N=C/c3sccc3C)nc2c1`, the TGI is 28.9 µM in the assay with BT-549 breast, 23.3 µM in the assay with DU-145 prostate, over 100 µM in the assay with ACHN renal and 87.3 µM with SR leukemia.
